# Test results as given in ChEMBL document CHEMBL5252577, “Amphiphilic Polyamine α-Synuclein Aggregation Inhibitors from the Sponge Aaptos lobata” (J Nat Prod, 2023).
# What was measured:
# Staphylococcus aureus [1] = assay: Antibacterial activity against methicillin-resistant Staphylococcus aureus ATCC 43300 assessed as bacterial growth inhibition resazurin dye based microplate analysis; format: functional
# PC-3 = assay: Cytotoxicity against human PC-3 cells assessed as reduction in cell viability measured for 48 hrs by resazurin dye based assay; format: functional; conditions: PC-3, 48 h
# Staphylococcus aureus [2] = assay: Antibacterial activity against methicillin-sensitive Staphylococcus aureus ATCC 25923 assessed as bacterial growth inhibition resazurin dye based microplate analysis; format: functional
# Pseudomonas aeruginosa = assay: Antibacterial activity against Pseudomonas aeruginosa ATCC 27853 assessed as bacterial growth inhibition resazurin dye based microplate analysis; format: functional
# [3] = Cytotoxicity against human WPMY-1 cells assessed as reduction in cell viability measured for 48 hrs by resazurin dye based assay; format: toxicity
Compound,MIC90 (Staphylococcus aureus [1]),IC50 (PC-3),MIC90 (Staphylococcus aureus [2]),MIC90 (Pseudomonas aeruginosa),IC50 at 48 h [3]
CC(=O)O[C@H]1C[C@@]2(C)[C@@H](C[C@@H](O)[C@H]3[C@@]4(C)CC[C@@H](O)[C@@H](C)[C@@H]4CC[C@@]32C)/C1=C(\CCC=C(C)C)C(=O)O [FUSIDIC ACID],0.25 µg/mL,–,–,–,–
CCCCCCCCCC(=O)N(C)CCCNCCCNCCCNCCCCNCCCNCCCNCCCN(C)C(=O)CCCCCCC(C)C,16 µg/mL,3.4 µM,8 µg/mL,32 µg/mL,4.3 µM
CCCCCCCCCC(=O)N(C)CCCNCCCNCCCNCCCCNCCCNCCCNCCCN(C)C(=O)CCCCCCCC(C)C,32 µg/mL,4.1 µM,32 µg/mL,64 µg/mL,4.1 µM
CC[C@H]1OC(=O)[C@H](C)[C@@H](O[C@H]2C[C@@](C)(OC)[C@@H](O)[C@H](C)O2)[C@H](C)[C@@H](O[C@@H]2O[C@H](C)C[C@H](N(C)C)[C@H]2O)[C@](C)(O)C[C@@H](C)C(=O)[C@H](C)[C@@H](O)[C@]1(C)O [ERYTHROMYCIN],–,–,2 µg/mL,–,–
NC[C@H]1O[C@H](O[C@H]2[C@H](O)[C@@H](O[C@H]3O[C@H](CO)[C@@H](O)[C@H](N)[C@H]3O)[C@H](N)C[C@@H]2N)[C@H](N)C[C@@H]1O [TOBRAMYCIN],–,–,–,1 µg/mL,–
COc1cccc2c1C(=O)c1c(O)c3c(c(O)c1C2=O)C[C@@](O)(C(=O)CO)C[C@@H]3O[C@H]1C[C@H](N)[C@H](O)[C@H](C)O1 [DOXORUBICIN],–,0.6 µM,–,–,0.7 µM
